From patent publication EP0417637A2, “Use of dopamine autoreceptor agonists in the treatment of drug dependency” (BOEHRINGER INGELHEIM KG, priority 1989, dated 1991)
Like-named read-outs stand apart in the source and are kept apart here.

Legend:
[1] = test system: Affen; assay: Test 2: intravenous self-administration in monkeys receiving cocaine infusions (analogous to Test 1); settings: BHT 920 0,001, 0,003 and 0,01 mg/kg/Injektion or cocaine; 3 monkeys, each dose available for 25 min or 20 infusions
[2] = test system: Affen; assay: Test 1: intravenous self-administration in monkeys experienced with sodium methohexital and saline; settings: for Anzahl der Selbstinjektionen: average values, 3 monkeys, sessions of 130 min
[3] = test system: drogenabhängigen Affen; assay: Test 3: effect of BHT 920 on cocaine or alfentanil self-administration in drug-dependent monkeys; type: in vivo
Protocol: Nach Durchführung des Tests Nr. […] In weiteren analogen Versuchen (siehe beiliegende graphische Darstellungen für Affe 1, Affe 2 und Affe 3) wurde den drogenabhängigen Affen BHT 920 in 2 Dosen (0,01 und 0,1 mg/kg/Injektion) gleichzeitig zu steigenden Dosen von Kokain (2 Tiere) beziehungsweise Alfentanil (1 Tier) angeboten. […] Auch sehr hohe Dosen der suchterzeugenden Droge konnten diese Wirkung von BHT 920 nicht aufheben. Aufgrund von Verhaltensbeobachtungen während der oben beschriebenen Tests kann gesagt werden, daß die hemmende Wirkung von BHT 920 nicht durch eine allgemeine Sedation erklärt werden kann. Daraus kann geschlossen werden, daß die Verabreichung von BHT 920 das Bedürfnis nach Kokain mindert und die psychische Abhängigkeit von der Droge durchbricht.

[4] = Extensive animal tests on abuse potential (no method given); type: in vivo
From the text: Das ist für die Therapie von großer Bedeutung.

[5] = test system: Affen; settings: in vivo

## C=CCN1CCc2nc(N)sc2CC1 [BHT 920, 6-Allyl-2-amino-5,6,7,8-tetrahydro-4H-thiazolo[4,5-d]azepin]
[1]
  Reaktionshäufigkeit: in dem Bereich lag, der auch bei Kochsalzlösung beobachtet wurde
[2]; 0,01 mg BHT 920/kg/Injektion i.v.
  Anzahl der Selbstinjektionen: 10
[2]; 0,05 mg BHT 920/kg/Injektion i.v.
  Anzahl der Selbstinjektionen: 18
[2]; 0,0001 mg BHT 920/kg/Injektion i.v.
  Anzahl der Selbstinjektionen: 21
[2]; 0,001 mg BHT 920/kg/Injektion i.v.
  Anzahl der Selbstinjektionen: 19
[2]; at the doses used
  Reinforcement: kein Reinforcement
[2]; four doses, each tested twice in each monkey, compared with saline and methohexital
  Anzahl der genommenen Injektionen der Testsubstanz: nicht höher als die Anzahl der genommenen Injektionen von Kochsalzlösung
[3]; BHT 920 high dose 0,1 mg/kg/Injektion given together with rising doses of cocaine (2 animals) or alfentanil (1 animal)
  Kokain - beziehungsweise Alfentanil - Selbstadministrationsrate: auf Null sinken
[3]; BHT 920 lower dose 0,01 mg/kg/Injektion given together with rising doses of cocaine (2 animals) or alfentanil (1 animal)
  Kokain - beziehungsweise Alfentanil - Selbstadministrationsrate: deutlichen Abnahme
[3]; session following administration of BHT 920, in 2 of 3 animals, compared with cocaine in Test 2
  durch Kokain verursachte Reaktionshäufigkeit: wesentlich unter der in Test 2 für Kokain beobachtete Reaktionshäufigkeit
[4]
  Mißbrauchspotential: kein Mißbrauchspotential

## COC(=O)[C@H]1[C@@H](OC(=O)c2ccccc2)C[C@@H]2CC[C@H]1N2C [Kokain]
[5]
  Reaktionshäufigkeit: dosenabhängige Erhöhung der Reaktionshäufigkeit

## CCCN[C@H]1CCc2nc(N)sc2C1 [SND 919, (S)-2-Amino-4,5,6,7-tetrahydro-6-n-propylamino-benzothiazol]
[4]
  Mißbrauchspotential: kein Mißbrauchspotential
